# Assay results: ChEMBL document CHEMBL5236606, “Synthesis, Structure-Activity Relationships, and In Vivo Evaluation of Novel C-17 Amine Derivatives Based on GSK3640254 as HIV-1 Maturation Inhibitors with Broad Spectrum Activity” (J Med Chem, 2022)
# Key:
# [1] = system: Human immunodeficiency virus 1; experiment: Antiviral activity against wild type HIV-1 NLRepRlucP373S harboring deltaV370 mutant infected in human MT2 cells assessed as inhibition of viral growth measured after 4 to 5 days by Dual luciferase reporter assay; assay type: functional, organism-based; conditions: Human immunodeficiency virus 1, NLRepRlucP373S
# [2] = system: Human immunodeficiency virus 1; experiment: Antiviral activity against wild type HIV-1 NLRepRlucP373S harboring V370A mutant infected in human MT2 cells assessed as inhibition of viral growth measured after 4 to 5 days by Dual luciferase reporter assay; assay type: functional, organism-based; conditions: Human immunodeficiency virus 1, NLRepRlucP373S
# [3] = Fold resistance, ratio of EC50 for antiviral activity against wild type HIV-1 NLRepRlucP373S infected in human MT2 cells assessed as inhibition of viral growth in presence of 10% FBS and 40% human serum supplemented with 27mg/mL of human serum albumin to EC50 for antiviral activity against wild type HIV-1 NLRepRlucP373S infected in human MT2 cells assessed as inhibition of viral growth; assay type: functional, Human immunodeficiency virus 1
# [4] = Metabolic stability in human liver microsomes assessed as half life at 0.5 uM in presence of NADPH by LC-MS/MS analysis; assay type: ADME, Microsome
# [5] = Volume of distribution at steady state in Sprague-Dawley rat at 1 mg/kg, iv by LC-MS/MS analysis; assay type: ADME, organism-based; conditions: in vivo, read-out: Vdss
# [6] = system: Human immunodeficiency virus 1; experiment: Antiviral activity against wild type HIV-1 NLRepRlucP373S infected in human MT2 cells assessed as inhibition of viral growth measured after 4 to 5 days by Dual luciferase reporter assay; assay type: functional, organism-based; conditions: Human immunodeficiency virus 1, NLRepRlucP373S
# [7] = Metabolic stability in dog liver microsomes assessed as half life at 0.5 uM in presence of NADPH by LC-MS/MS analysis; assay type: ADME, Canis lupus familiaris, Microsome
# [8] = Cytotoxicity against human MT2 cells assessed as reduction in cell viability; assay type: toxicity, cell-based
# [9] = system: Human immunodeficiency virus 1; experiment: Antiviral activity against wild type HIV-1 NLRepRlucP373S harboring A326T/V362I/V370A mutant infected in human MT2 cells assessed as inhibition of viral growth measured after 4 to 5 days by Dual luciferase reporter assay; assay type: functional, organism-based; conditions: Human immunodeficiency virus 1, NLRepRlucP373S
# [10] = Metabolic stability in rat liver microsomes assessed as half life at 0.5 uM in presence of NADPH by LC-MS/MS analysis; assay type: ADME, Microsome
# [11] = system: Human immunodeficiency virus 1; experiment: Antiviral activity against wild type HIV-1 NLRepRlucP373S harboring T332S/V362I/prR41G mutant infected in human MT2 cells assessed as inhibition of viral growth measured after 4 to 5 days by Dual luciferase reporter assay; assay type: functional, organism-based; conditions: Human immunodeficiency virus 1, NLRepRlucP373S
# [12] = system: Human immunodeficiency virus 1; experiment: Antiviral activity against wild type HIV-1 NLRepRlucP373S harboring R361K/V362I/L363M mutant infected in human MT2 cells assessed as inhibition of viral growth measured after 4 to 5 days by Dual luciferase reporter assay; assay type: functional, organism-based; conditions: Human immunodeficiency virus 1, NLRepRlucP373S
# [13] = MRT in Sprague-Dawley rat at 1 mg/kg, iv by LC-MS/MS analysis; assay type: ADME, organism-based; conditions: in vivo
# [14] = Clearance in Sprague-Dawley rat at 1 mg/kg, iv by LC-MS/MS analysis; assay type: ADME, organism-based; conditions: in vivo
# Albumin = Albumin (Homo sapiens, UniProt P02768); experiment: Protein binding in human serum albumin assessed as fraction bound at 53 nM incubated for 1 hrs by ultracentrifugation method; assay type: ADME, cell-free; conditions: read-out: PPB (converted)
# Chain of Albumin (P02768 whole entry): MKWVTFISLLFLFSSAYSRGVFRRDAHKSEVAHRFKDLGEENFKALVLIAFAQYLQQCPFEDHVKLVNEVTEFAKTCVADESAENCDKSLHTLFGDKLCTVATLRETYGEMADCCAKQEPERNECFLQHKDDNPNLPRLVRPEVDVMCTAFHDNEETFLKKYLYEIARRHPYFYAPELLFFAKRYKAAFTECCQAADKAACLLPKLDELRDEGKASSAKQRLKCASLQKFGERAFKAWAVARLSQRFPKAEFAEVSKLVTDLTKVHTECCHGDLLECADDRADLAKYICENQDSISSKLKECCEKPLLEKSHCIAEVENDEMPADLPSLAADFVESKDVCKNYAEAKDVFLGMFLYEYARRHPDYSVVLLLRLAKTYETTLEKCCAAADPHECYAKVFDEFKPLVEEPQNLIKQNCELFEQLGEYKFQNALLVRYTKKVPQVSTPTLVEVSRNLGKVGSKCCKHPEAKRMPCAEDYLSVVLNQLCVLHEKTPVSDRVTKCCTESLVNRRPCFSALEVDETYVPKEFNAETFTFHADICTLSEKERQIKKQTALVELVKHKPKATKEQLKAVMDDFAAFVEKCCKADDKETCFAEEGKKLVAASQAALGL
# [15] = Oral bioavailability in Sprague-Dawley rat at 5 mg/kg by LC-MS/MS analysis; assay type: ADME, organism-based; conditions: in vivo
# [16] = Cmax in Sprague-Dawley rat at 5 mg/kg, po by LC-MS/MS analysis; assay type: ADME, organism-based; parameters: dose 5 mg/kg, route po; conditions: in vivo
# [17] = system: Human immunodeficiency virus 1; experiment: Antiviral activity against wild type HIV-1 NLRepRlucP373S harboring V362I/V370A mutant infected in human MT2 cells assessed as inhibition of viral growth measured after 4 to 5 days by Dual luciferase reporter assay; assay type: functional, organism-based; conditions: Human immunodeficiency virus 1, NLRepRlucP373S
# [18] = Solubility of the compound in FeSSIF at pH 5.0; assay type: ADME
# [19] = Solubility of compound in FaSSIF at pH 6.5; assay type: ADME
# [20] = system: Human immunodeficiency virus 1; experiment: Antiviral activity against wild type HIV-1 NLRepRlucP373S infected in human MT2 cells assessed as inhibition of viral growth measured after 4 to 5 days in presence of 10% FBS and 40% human serum supplemented with 27 mg/mL of human serum albumin by Dual luciferase reporter assay; assay type: functional, organism-based; conditions: Human immunodeficiency virus 1, NLRepRlucP373S
# [21] = AUCt in Sprague-Dawley rat at 5 mg/kg, po by LC-MS/MS analysis; assay type: ADME, organism-based; parameters: dose 5 mg/kg, route po; conditions: in vivo
# [22] = Half life in Sprague-Dawley rat at 1 mg/kg, iv by LC-MS/MS analysis; assay type: ADME, organism-based; conditions: in vivo
# [23] = Half life in Beagle dog at 1 mg/kg, iv by LC-MS/MS analysis; assay type: ADME, organism-based, Canis lupus familiaris; conditions: in vivo
# [24] = Oral bioavailability in Beagle dog at 5 mg/kg administered as spray-dried dispersion in 99.5% water/0.5% methocel E4M by LC-MS/MS analysis; assay type: ADME, organism-based, Canis lupus familiaris; conditions: in vivo
# [25] = Volume of distribution at steady state in Beagle dog at 1 mg/kg, iv by LC-MS/MS analysis; assay type: ADME, organism-based, Canis lupus familiaris; conditions: in vivo, read-out: Vdss
# [26] = MRT in Beagle dog at 1 mg/kg, iv by LC-MS/MS analysis; assay type: ADME, organism-based, Canis lupus familiaris; conditions: in vivo
# [27] = Cmax in Beagle dog at 5 mg/kg, po administered as spray-dried dispersion in 99.5% water/0.5% methocel E4M by LC-MS/MS analysis; assay type: ADME, organism-based, Canis lupus familiaris; parameters: dose 5 mg/kg, route po; conditions: in vivo
# [28] = AUCt in Beagle dog at 5 mg/kg, po administered as solution in 98% citrate buffer/2% sulfobutylether-beta-cyclodextrin by LC-MS/MS analysis; assay type: ADME, organism-based, Canis lupus familiaris; parameters: dose 5 mg/kg, route po; conditions: in vivo
# [29] = Cmax in Beagle dog at 5 mg/kg, po administered as solution in 98% citrate buffer/2% sulfobutylether-beta-cyclodextrin by LC-MS/MS analysis; assay type: ADME, organism-based, Canis lupus familiaris; parameters: dose 5 mg/kg, route po; conditions: in vivo
# [30] = Oral bioavailability in Beagle dog at 5 mg/kg administered as solution in 98% citrate buffer/2% sulfobutylether-beta-cyclodextrin by LC-MS/MS analysis; assay type: ADME, organism-based, Canis lupus familiaris; conditions: in vivo
# [31] = AUCt in Beagle dog at 5 mg/kg, po administered as spray-dried dispersion in 99.5% water/0.5% methocel E4M by LC-MS/MS analysis; assay type: ADME, organism-based, Canis lupus familiaris; parameters: dose 5 mg/kg, route po; conditions: in vivo
# [32] = Clearance in Beagle dog at 1 mg/kg, iv by LC-MS/MS analysis; assay type: ADME, organism-based, Canis lupus familiaris; conditions: in vivo
# [33] = Protein binding in human plasma by ultracentrifugation method; assay type: ADME, cell-free; conditions: read-out: PPB
Compound,EC50 [1] [nM],EC50 [2] [nM],fold change (FC) [3],half-life at 0.5 µM [4] [min],Vd [5] [L/kg],EC50 [6] [nM],half-life at 0.5 µM [7] [min],CC50 [8] [µM],EC50 [9] [nM],half-life at 0.5 µM [10] [min],EC50 [11] [nM],EC50 [12] [nM],MRT [13] [h],clearance [14] [mL/min/kg],"fraction unbound at 1 h, 0.053 µM (Albumin)",bioavailability [15] [%],Cmax [16] [nM],EC50 [17] [nM],solubility [18] [µM],solubility [19] [µM],other results
C=C(C)[C@@H]1CC[C@]2(C(=O)NCCO)CC[C@]3(C)[C@H](CC[C@@H]4[C@@]5(C)CC=C(c6ccc(C(=O)O)cc6)C(C)(C)[C@@H]5CC[C@]43C)[C@@H]12,> 2000,41,–,–,–,–,–,–,–,–,–,–,–,–,–,–,–,–,–,–,–
C=C(C)[C@@H]1CC[C@]2(C(=O)NCCOC)CC[C@]3(C)[C@H](CC[C@@H]4[C@@]5(C)CC=C(c6ccc(C(=O)O)cc6)C(C)(C)[C@@H]5CC[C@]43C)[C@@H]12,–,152,–,–,–,–,–,–,–,–,–,–,–,–,–,–,–,–,–,–,–
C=C(C)[C@@H]1CC[C@]2(NCCN3CCS(=O)(=O)CC3)CC[C@]3(C)[C@H](CC[C@@H]4[C@@]5(C)CC=C(C6=CC[C@@](CF)(C(=O)O)CC6)C(C)(C)[C@@H]5CC[C@]43C)[C@@H]12,3,–,4.6,110,1.8,3,88,15.6,26,87,7,3,4.9,6.5,0.14,–,–,–,–,–,–
C=C(C)[C@@H]1CC[C@]2(NCC[C@]3(O)CC[C@](C)(O)CC3)CC[C@]3(C)[C@H](CC[C@@H]4[C@@]5(C)CC=C(C6=CC[C@](CF)(C(=O)O)CC6)C(C)(C)[C@@H]5CC[C@]43C)[C@@H]12,6,–,6.3,> 120,0.8,2.1,> 120,16,8,> 120,8.1,5.1,3.6,3.7,0.11,20,720,3.8,> 480,< 1,EC50 [20]: 13 nM; AUC(0-t) [21]: 6.19 µM·h; half-life [22]: 234 min
C=C(C)[C@@H]1CC[C@]2(NCCC3(O)COC3)CC[C@]3(C)[C@H](CC[C@@H]4[C@@]5(C)CC=C(C6=CC[C@](CF)(C(=O)O)CC6)C(C)(C)[C@@H]5CC[C@]43C)[C@@H]12,5.3,–,10,> 120,1,1.7,> 120,18,6.6,80,7,6.1,2.7,6.5,0.12,140,3860,4.1,32,4,EC50 [20]: 17 nM; AUC(0-t) [21]: 27.3 µM·h; half-life [22]: 216 min
C=C(C)[C@@H]1CC[C@]2(NCC[C@]3(O)CC[C@@H](S(C)(=O)=O)CC3)CC[C@]3(C)[C@H](CC[C@@H]4[C@@]5(C)CC=C(C6=CC[C@](CF)(C(=O)O)CC6)C(C)(C)[C@@H]5CC[C@]43C)[C@@H]12,5.1,3,5.8,83,0.8,1.6,> 120,21,4.3,85,6.4,4.5,3.8,3.5,0.11,24,830,2,> 700,21,half-life [23]: 804 min; bioavailability [24]: 31%; Vd [25]: 0.31 L/kg; MRT [26]: 13.2 h; Cmax [27]: 1960 nM; EC50 [20]: 9.3 nM; AUC(0-t) [28]: 23.3 µM·h; Cmax [29]: 1610 nM; bioavailability [30]: 21%; AUC(0-t) [31]: 35.3 µM·h; AUC(0-t) [21]: 8.11 µM·h; half-life [22]: 252 min; clearance [32]: 0.38 mL/min/kg
C=C(C)[C@@H]1CC[C@]2(C(=O)O)CC[C@]3(C)[C@H](CC[C@@H]4[C@@]5(C)CC[C@H](OC(=O)CC(C)(C)C(=O)O)C(C)(C)[C@@H]5CC[C@]43C)[C@@H]12 [BEVIRIMAT],–,–,97,–,–,–,–,–,–,–,–,–,–,–,–,–,–,–,–,–,fraction unbound [33]: < 0.001
